# Literature values, collected in patent publication EP1649859A1, “Pharmaceutical compositions comprising at least one poorly diffusible anticancer drug and a olidodeoxynucleotide immunestimulant” (Institut Gustave Roussy, priority 2004, dated 2006).
# Settings: bléomycine seule à des doses sub-thérapeutiques
substance,measurement,value
bléomycine,activité antitumorale propre,ne possèdent pas d'activité antitumorale propre
